Source: patent US20120270819A1, “USE OF COMPOUNDS WITH SGLT-1/SGLT-2 INHIBITOR ACTIVITY FOR PRODUCING MEDICAMENTS FOR TREATMENT OF BONE DISEASE” (SANOFI, priority 2009, published 2012)

molecular target: T1, human sodium-dependent glucose transporter 2 (SGLT2, SLC5A2) (Homo sapiens, UniProt P31639); test: Inhibition of methyl-D-glucopyranoside uptake in CHO-TRex-hSGLT2 cells; assay type: cell-based; conditions: recombinant SGLT2; read-out: IC50 SGLT 2
T1 construct: Bases 21 to 2039 correspond to the complete coding region of human SGLT2; expressed in transfected cells; host or cells: CHO-TREx cells (Invitrogen), pcDNA4/TO vector, tetracycline-induced
T1 sequence (P31639 1-672): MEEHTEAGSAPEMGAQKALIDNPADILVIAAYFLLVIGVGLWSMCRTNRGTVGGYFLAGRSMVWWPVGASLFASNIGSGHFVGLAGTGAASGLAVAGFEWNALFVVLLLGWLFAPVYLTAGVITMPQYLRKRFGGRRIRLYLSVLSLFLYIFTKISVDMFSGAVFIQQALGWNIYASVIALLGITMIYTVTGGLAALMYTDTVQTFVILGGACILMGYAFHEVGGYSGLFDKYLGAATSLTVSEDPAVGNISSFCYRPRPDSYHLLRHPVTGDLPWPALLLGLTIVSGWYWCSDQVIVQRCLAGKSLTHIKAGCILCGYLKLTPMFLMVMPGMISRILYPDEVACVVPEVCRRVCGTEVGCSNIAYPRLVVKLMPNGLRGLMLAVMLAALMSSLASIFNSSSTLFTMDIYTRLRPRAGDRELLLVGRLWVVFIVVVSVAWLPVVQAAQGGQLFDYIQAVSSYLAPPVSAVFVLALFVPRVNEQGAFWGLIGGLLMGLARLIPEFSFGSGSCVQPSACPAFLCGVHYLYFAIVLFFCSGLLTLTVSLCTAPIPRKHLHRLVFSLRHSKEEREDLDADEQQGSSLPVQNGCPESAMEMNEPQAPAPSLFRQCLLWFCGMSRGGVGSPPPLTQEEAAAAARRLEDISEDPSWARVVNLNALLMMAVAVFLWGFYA
Text: Inhibition of the Transport Activity of the Human Sodium-Dependent Glucose Transporter 2 (SGLT2, SLC5A2) In Vitro
1. Cloning of an Expression Vector for Human SGLT2
The cDNA for human SGLT2 was introduced into the pcDNA4/TO vector (Invitrogen) by means of standard methods of molecular biology as described in Sambrook et al. (Molecular Cloning, A Laboratory Manual, Second Edition). […] Bases 21 to 2039 correspond to the complete coding region of human SGLT2.
2. Production of a Recombinant Cell Line with Inducible Expression of Human SGLT2
The expression vector for human SGLT2 was introduced into CHO-TREx cells (Invitrogen) by means of FuGene6 lipofection (Roche). To select single cell clones, 600 μg/ml of Zeocin (Invitrogen) was added to the cell culture medium (nutrient mixture F-12 (Ham), (Invitrogen) supplemented with 10% fetal calf serum (FBS Gold, PAA), 10 μg/ml Blasticidin S(CN Biosciences), 100 units/ml penicillin, 100 units/ml streptomycin). The functionality of the single cell clones resulting from the selection was tested via their uptake activity for radiolabeled methyl- -D-glucopyranoside. That cell clone with the highest uptake activity for methyl- -D-glucopyranoside, referred to hereinafter as CHO-TRex-hSGLT2, was selected for the further experiments and cultured further in the presence of 600 μg/ml Zeocin.
3. Measurement of the Inhibiting Action of Test Substances on the Uptake of Methyl- -D-glucopyranoside (-MDG)
CHO-TRex-hSGLT2 cells were seeded in cell culture medium in a concentration of 50 000 cells per well in Cytostar-T scintillating 96-well plates (Amersham Biosciences) and cultivated for 24 h. The expression of the recombinant human SGLT2 was induced by adding 1 μg/ml tetrazykline for a further 24 h. For -MDG uptake experiments, the cells were washed with PBS and then starved at 37° C. in starvation medium (PBS supplemented with 10% fetal calf serum) for 1 hour. […] After an incubation time of 120 min at 37° C., the reaction was stopped by adding 50 μl/well of 10 mM methyl- -D-glucopyranoside in transport assay buffer (4° C.), and the radioactivity taken up into the cells was determined in a MicroBeta Scintillation Microplate Reader (Wallac). The half-maximum inhibiting action of the test substances (IC50 value) was determined as follows:
4. […] This is the measurement in the absence of substance, measured in sodium-containing transport assay buffer.
5. […] This is the measurement in the absence of substance, measured in sodium-free transport assay buffer (140 mM choline chloride, 2 mM potassium chloride, 1 mM magnesium chloride, 1 mM calcium chloride, 10 mM HEPES/Tris, pH7.5). […]

Question: COc1ccc(Cc2c(OC3OC(CO)C(F)C(O)C3O)n[nH]c2C(F)(F)F)cc1 (stereo not shown) [Example 5 of formula II] was tested. Which IC50 did it give?
Answer: 88 nM

Question: COc1ccc(Cc2ccccc2OC2OC(CO)C(F)C(O)C2O)cc1 (stereo not shown) [Example 1 of formula III] was tested. Which IC50 did it give?
Answer: 34 nM

Question: For CC(C)c1[nH]nc(OC2OC(CO)C(F)C(O)C2O)c1Cc1ccc(CCCC(=O)NC(CO)(CO)CO)cc1 (stereo not shown) [Example 21 of formula I], which IC50 is on record?
Answer: 318 nM

Question: How did the IC50 turn out when CCc1ccc(Cc2ccccc2OC2OC(CO)C(F)C(O)C2O)cc1 (stereo not shown) [Example 20 of formula III] was run?
Answer: 29 nM
